Laboratory results: PubChem BioAssay (NCI)
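In this assay, cells in 96-well plates receive the compound at five concentrations for 48 hours. Endpoints are linearly interpolated between the surrounding concentrations. TGI: concentration producing complete growth inhibition.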

Key:
Assay in all cases: NCI tumour cell line growth inhibition, 48 h
786-0 renal = test system: 786-0 renal
A498 renal = test system: A498 renal
A549 NSCLC = test system: A549 NSCLC
ACHN renal = test system: ACHN renal
CAKI-1 renal = test system: CAKI-1 renal
CCRF-CEM leukemia = test system: CCRF-CEM leukemia
COLO 205 colon = test system: COLO 205 colon
DLD-1 colon = test system: DLD-1 colon
DMS 114 small cell lung = test system: DMS 114 small cell lung
DMS 273 small cell lung = test system: DMS 273 small cell lung
EKVX NSCLC = test system: EKVX NSCLC
HCC-2998 colon = test system: HCC-2998 colon
HCT-116 colon = test system: HCT-116 colon
HCT-15 colon = test system: HCT-15 colon
HL-60(TB) leukemia = test system: HL-60(TB) leukemia
HOP-18 NSCLC = test system: HOP-18 NSCLC
HOP-62 NSCLC = test system: HOP-62 NSCLC
HOP-92 NSCLC = test system: HOP-92 NSCLC
HT29 colon = test system: HT29 colon
IGROV1 ovarian = test system: IGROV1 ovarian
K-562 leukemia = test system: K-562 leukemia
KM12 colon = test system: KM12 colon
KM20L2 colon = test system: KM20L2 colon
LOX IMVI melanoma = test system: LOX IMVI melanoma
LXFL 529 NSCLC = test system: LXFL 529 NSCLC
M14 melanoma = test system: M14 melanoma
M19-MEL melanoma = test system: M19-MEL melanoma
MALME-3M melanoma = test system: MALME-3M melanoma
MOLT-4 leukemia = test system: MOLT-4 leukemia
NCI-H226 lung = test system: NCI-H226 lung
NCI-H23 lung = test system: NCI-H23 lung
NCI-H460 lung = test system: NCI-H460 lung
NCI-H522 lung = test system: NCI-H522 lung
OVCAR-3 ovarian = test system: OVCAR-3 ovarian
OVCAR-4 ovarian = test system: OVCAR-4 ovarian
OVCAR-5 ovarian = test system: OVCAR-5 ovarian
OVCAR-8 ovarian = test system: OVCAR-8 ovarian
RPMI-8226 leukemia = test system: RPMI-8226 leukemia
RXF 393 renal = test system: RXF 393 renal
SF-268 CNS = test system: SF-268 CNS
SF-295 CNS = test system: SF-295 CNS
SF-539 CNS = test system: SF-539 CNS
SK-MEL-2 melanoma = test system: SK-MEL-2 melanoma
SK-MEL-28 melanoma = test system: SK-MEL-28 melanoma
SK-MEL-5 melanoma = test system: SK-MEL-5 melanoma
SK-OV-3 ovarian = test system: SK-OV-3 ovarian
SN12C renal = test system: SN12C renal
SNB-19 CNS = test system: SNB-19 CNS
SNB-75 CNS = test system: SNB-75 CNS
SNB-78 CNS = test system: SNB-78 CNS
SR leukemia = test system: SR leukemia
SW-620 colon = test system: SW-620 colon
TK-10 renal = test system: TK-10 renal
U251 CNS = test system: U251 CNS
UACC-257 melanoma = test system: UACC-257 melanoma
UACC-62 melanoma = test system: UACC-62 melanoma
UO-31 renal = test system: UO-31 renal
XF 498 CNS = test system: XF 498 CNS

Question: `ClCC[N-]CC[N-]CCCl.ClCC[N-]CC[N-]CCCl.[O-][Cl+3]([O-])([O-])O.[Zn+2]` was tested. Which TGI (786-0 renal) did it give?
Answer: 39.1 µM

Question: What about the TGI (A498 renal) of the same compound?
Answer: > 100 µM

Question: What about the TGI (A549 NSCLC) of the same compound?
Answer: > 100 µM

Question: What about the TGI (ACHN renal) of the same compound?
Answer: 49.6 µM

Question: And the TGI (CAKI-1 renal)?
Answer: 39.7 µM

Question: And the TGI (CCRF-CEM leukemia)?
Answer: 82.3 µM

Question: What about the TGI (COLO 205 colon) of the same compound?
Answer: > 72.2 µM

Question: What about the TGI (DLD-1 colon) of the same compound?
Answer: 35 µM

Question: And the TGI (DMS 114 small cell lung)?
Answer: > 55.8 µM

Question: What about the TGI (DMS 273 small cell lung) of the same compound?
Answer: > 60.2 µM

Question: And the TGI (EKVX NSCLC)?
Answer: > 100 µM

Question: What about the TGI (HCC-2998 colon) of the same compound?
Answer: > 100 µM

Question: And the TGI (HCT-116 colon)?
Answer: > 62.8 µM

Question: And the TGI (HCT-15 colon)?
Answer: > 100 µM

Question: What about the TGI (HL-60(TB) leukemia) of the same compound?
Answer: > 100 µM

Question: And the TGI (HOP-18 NSCLC)?
Answer: 56.5 µM

Question: What about the TGI (HOP-62 NSCLC) of the same compound?
Answer: > 100 µM

Question: And the TGI (HOP-92 NSCLC)?
Answer: > 57.3 µM

Question: And the TGI (HT29 colon)?
Answer: > 100 µM

Question: What about the TGI (IGROV1 ovarian) of the same compound?
Answer: > 62.3 µM

Question: And the TGI (K-562 leukemia)?
Answer: 68.7 µM

Question: What about the TGI (KM12 colon) of the same compound?
Answer: > 100 µM

Question: And the TGI (KM20L2 colon)?
Answer: > 100 µM

Question: And the TGI (LOX IMVI melanoma)?
Answer: 57.2 µM

Question: What about the TGI (LXFL 529 NSCLC) of the same compound?
Answer: 35.9 µM

Question: What about the TGI (M14 melanoma) of the same compound?
Answer: 38.5 µM

Question: What about the TGI (M19-MEL melanoma) of the same compound?
Answer: > 57.1 µM

Question: What about the TGI (MALME-3M melanoma) of the same compound?
Answer: 37.4 µM

Question: And the TGI (MOLT-4 leukemia)?
Answer: > 100 µM

Question: What about the TGI (NCI-H226 lung) of the same compound?
Answer: > 100 µM

Question: And the TGI (NCI-H23 lung)?
Answer: > 60.3 µM

Question: What about the TGI (NCI-H460 lung) of the same compound?
Answer: > 71.2 µM

Question: And the TGI (NCI-H522 lung)?
Answer: 27.3 µM

Question: What about the TGI (OVCAR-3 ovarian) of the same compound?
Answer: 32.1 µM

Question: And the TGI (OVCAR-4 ovarian)?
Answer: 41.8 µM

Question: And the TGI (OVCAR-5 ovarian)?
Answer: 46.6 µM

Question: What about the TGI (OVCAR-8 ovarian) of the same compound?
Answer: 45.4 µM

Question: What about the TGI (RPMI-8226 leukemia) of the same compound?
Answer: > 100 µM

Question: What about the TGI (RXF 393 renal) of the same compound?
Answer: > 59.1 µM

Question: What about the TGI (SF-268 CNS) of the same compound?
Answer: 56.6 µM

Question: And the TGI (SF-295 CNS)?
Answer: > 100 µM

Question: And the TGI (SF-539 CNS)?
Answer: > 67.8 µM

Question: And the TGI (SK-MEL-2 melanoma)?
Answer: 41.4 µM

Question: What about the TGI (SK-MEL-28 melanoma) of the same compound?
Answer: > 62.4 µM

Question: What about the TGI (SK-MEL-5 melanoma) of the same compound?
Answer: 56.1 µM

Question: What about the TGI (SK-OV-3 ovarian) of the same compound?
Answer: > 100 µM

Question: What about the TGI (SN12C renal) of the same compound?
Answer: > 100 µM

Question: And the TGI (SNB-19 CNS)?
Answer: > 100 µM

Question: And the TGI (SNB-75 CNS)?
Answer: 44.1 µM

Question: And the TGI (SNB-78 CNS)?
Answer: > 76.6 µM

Question: And the TGI (SR leukemia)?
Answer: > 100 µM

Question: And the TGI (SW-620 colon)?
Answer: 47.2 µM

Question: And the TGI (TK-10 renal)?
Answer: > 71.1 µM

Question: What about the TGI (U251 CNS) of the same compound?
Answer: > 67.3 µM

Question: What about the TGI (UACC-257 melanoma) of the same compound?
Answer: 63.2 µM

Question: What about the TGI (UACC-62 melanoma) of the same compound?
Answer: 66.9 µM

Question: And the TGI (UO-31 renal)?
Answer: > 72.5 µM

Question: What does the source list for `CC(C)(C)[C@H]1CO[C@]2(c3ccccc3)[C@@H]3C[C@@H]3C(=O)N12`?
Answer: TGI (786-0 renal): > 100 µM; TGI (A549 NSCLC): > 100 µM; TGI (ACHN renal): > 100 µM; TGI (CAKI-1 renal): > 100 µM; TGI (COLO 205 colon): > 100 µM; TGI (DLD-1 colon): > 100 µM; TGI (DMS 114 small cell lung): > 100 µM; TGI (DMS 273 small cell lung): > 100 µM; TGI (EKVX NSCLC): > 100 µM; TGI (HCC-2998 colon): > 100 µM; TGI (HCT-15 colon): > 100 µM; TGI (HL-60(TB) leukemia): > 100 µM; TGI (HOP-62 NSCLC): > 100 µM; TGI (HOP-92 NSCLC): > 100 µM; TGI (HT29 colon): > 100 µM; TGI (IGROV1 ovarian): > 100 µM; TGI (KM12 colon): > 100 µM; TGI (KM20L2 colon): > 100 µM; TGI (LOX IMVI melanoma): > 100 µM; TGI (LXFL 529 NSCLC): > 100 µM; TGI (M14 melanoma): > 100 µM; TGI (M19-MEL melanoma): > 100 µM; TGI (MALME-3M melanoma): > 100 µM; TGI (NCI-H226 lung): > 100 µM; TGI (NCI-H23 lung): > 100 µM; TGI (NCI-H460 lung): > 100 µM; TGI (NCI-H522 lung): > 100 µM; TGI (OVCAR-3 ovarian): > 100 µM; TGI (OVCAR-4 ovarian): > 100 µM; TGI (OVCAR-5 ovarian): > 100 µM; TGI (OVCAR-8 ovarian): > 100 µM; TGI (RPMI-8226 leukemia): > 100 µM; TGI (RXF 393 renal): > 100 µM; TGI (SF-268 CNS): > 100 µM; TGI (SF-295 CNS): > 100 µM; TGI (SF-539 CNS): > 100 µM; TGI (SK-MEL-2 melanoma): > 100 µM; TGI (SK-MEL-28 melanoma): > 100 µM; TGI (SK-MEL-5 melanoma): > 100 µM; TGI (SK-OV-3 ovarian): > 100 µM; TGI (SN12C renal): > 100 µM; TGI (SNB-19 CNS): > 100 µM; TGI (SNB-75 CNS): > 100 µM; TGI (SR leukemia): > 100 µM; TGI (SW-620 colon): > 100 µM; TGI (TK-10 renal): > 100 µM; TGI (U251 CNS): > 100 µM; TGI (UACC-257 melanoma): > 100 µM; TGI (UACC-62 melanoma): > 100 µM; TGI (UO-31 renal): > 100 µM; TGI (XF 498 CNS): > 100 µM
